Data from patent publication US7432386B2, “Diarylbutadiene-substituted methyltrialkylsilanes and photoprotective compositions comprised thereof” (L'Oreal, priority 2003, dated 2008).

Test: UV absorption spectrum in ethanol
Assay type: physicochemical
Conditions: for UV E1% / UV εmax: at λmax

| Compound | UV λmax | UV E1% | UV εmax |
| --- | --- | --- | --- |
| C[Si](C)(C)COC(=O)C(=CC=C(c1ccccc1)c1ccccc1)C(=O)OC[Si](C)(C)C [Example 1] | 333 nm | 614 | 28 610 |
| CCOC(=O)/C(=C/C=C(c1ccccc1)c1ccccc1)C(=O)OC[Si](C)(C)C [Example 2] | 334 nm | 692 | 28 270 |
| C[Si](C)(C)COC(=O)/C(C#N)=C\C=C(c1ccccc1)c1ccccc1 [Example 3, monotrimethylsilanylmethyl ester of 2-cyano-5,5-diphenyl-2,4-pentadienoic acid] | 360 nm | 800 | 28 880 |
